Toxic doses and inconclusive results are not listed. Rule for the calls: active = survival T/C of 150% or more; inactive = T/C below 125% in these data. Square brackets hold non-standard residues; d marks the D form. Peptide text beside a SMILES is read from it. * marks the point of attachment. Trt = c1ccc(C(c2ccccc2)(c2ccccc2)*)cc1; Cbz = O=C(OCc1ccccc1)*; Nva = CCC[CH](N)C(=O)O; Boc = CC(C)(C)OC(=O)*; Bn = c1ccc(C*)cc1; NHNH2 = NN*
Tested on: P388 leukemia ip, CD2F1 mice, survival T/C
Experiment: NCI In Vivo Anticancer Drug Screen. Data for tumor model P388 Leukemia (intraperitoneal) in CD2F1 (CDF1) mice
Conditions: endpoint: median survival time, higher = longer survival
Procedure, shortened: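 Mice carrying the transplanted tumor received test compound or vehicle. Survival was recorded in each group, and the value is the treated-group measurement divided by that of the vehicle-treated control group.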

[1] = dose: 50.0 mg/kg/injection, schedule: Q01DX005 (ip), vehicle: Klucel (hydroxypropylcellulose) (HPC)
[2] = dose: 100.0 mg/kg/injection, schedule: Q01DX005 (ip), vehicle: Klucel (hydroxypropylcellulose) (HPC)
[3] = dose: 200.0 mg/kg/injection, schedule: Q01DX005 (ip), vehicle: Klucel (hydroxypropylcellulose) (HPC)
[4] = dose: 50.0 mg/kg/injection, schedule: Q01DX009 (ip), vehicle: saline with Tween-80
[5] = dose: 100.0 mg/kg/injection, schedule: Q01DX009 (ip), vehicle: saline with Tween-80
[6] = dose: 12.5 mg/kg/injection, schedule: Q01DX009 (ip), vehicle: water
[7] = dose: 25.0 mg/kg/injection, schedule: Q01DX009 (ip), vehicle: water
[8] = dose: 50.0 mg/kg/injection, schedule: Q01DX009 (ip), vehicle: water
[9] = dose: 100.0 mg/kg/injection, schedule: Q01DX009 (ip), vehicle: water
[10] = dose: 200.0 mg/kg/injection, schedule: Q01DX009 (ip), vehicle: water
[11] = dose: 50.0 mg/kg/injection, schedule: Q01DX005 (ip), vehicle: saline with Tween-80
[12] = dose: 100.0 mg/kg/injection, schedule: Q01DX005 (ip), vehicle: saline with Tween-80
[13] = dose: 200.0 mg/kg/injection, schedule: Q01DX005 (ip), vehicle: saline with Tween-80
[14] = dose: 7.5 mg/kg/injection, schedule: Q01DX009 (ip), vehicle: saline with Tween-80

Measured: T/C

NC(=O)N/N=C/Cn1ccc(=O)[nH]c1=O
inactive: [1] 99 % of control | [2] 97 % of control | [3] 90 % of control

CC1(CO)C2CCC(CC2)C1CO (stereo unspecified)
inactive: [4] 109 % of control | [5] 100 % of control | dose: 200.0 mg/kg/injection, schedule: Q01DX009 (ip), vehicle: saline with Tween-80 104 % of control

C=CCC(=C)C(=O)OC
inactive: [6] 103 % of control | [7] 104 % of control | [8] 102 % of control | [9] 102 % of control | [10] 103 % of control

COP(=O)(O)/C(=N/NS(=O)(=O)c1ccc(C)cc1)c1ccccc1
inactive: [6] 96 % of control | [7] 96 % of control | [8] 93 % of control | [9] 98 % of control | [10] 98 % of control | dose: 400.0 mg/kg/injection, schedule: Q01DX009 (ip), vehicle: water 97 % of control

S=c1ncnc2cc3[nH][nH]cc3cc12
inactive: [11] 90 % of control | [12] 86 % of control | [13] 92 % of control

Cc1cnc2cc(Cl)ccc2c1SCC(=O)O
inactive: [11] 104 % of control | [12] 108 % of control | [13] 108 % of control

CCOC(=O)Nc1c(CC(C)O)n[nH]c1C (stereo unspecified)
inactive: [11] 110 % of control | [12] 100 % of control | [13] 96 % of control

O=C(Cn1ccnc1)Nc1ccc(Cl)cc1C(=O)c1ccccc1
inactive: [11] 95 % of control | [12] 92 % of control

CCOC(=O)CNC(=O)C(CSCc1ccccc1)NC(=O)C(CSC(c1ccccc1)(c1ccccc1)c1ccccc1)NC(=O)OC(C)(C)C (stereo unspecified) (Boc-Cys(Trt)-Cys(Bn)-Gly-OEt; configuration not given here)
inactive: [1] 101 % of control | [2] 101 % of control | [3] 99 % of control

C/C1=C/CCC(C)c2cc(OC(=O)c3ccccc3)c(C)cc2C1 (stereo unspecified)
inactive: dose: 25.0 mg/kg/injection, schedule: Q01DX005 (ip), vehicle: Klucel (hydroxypropylcellulose) (HPC) 104 % of control | [1] 99 % of control | dose: 70.0 mg/kg/injection, schedule: Q01DX005 (ip), vehicle: Klucel (hydroxypropylcellulose) (HPC) 90 % of control | [2] 107 % of control | dose: 140.0 mg/kg/injection, schedule: Q01DX005 (ip), vehicle: Klucel (hydroxypropylcellulose) (HPC) 95 % of control | [3] 95 % of control | dose: 280.0 mg/kg/injection, schedule: Q01DX005 (ip), vehicle: Klucel (hydroxypropylcellulose) (HPC) 90 % of control | dose: 560.0 mg/kg/injection, schedule: Q01DX005 (ip), vehicle: Klucel (hydroxypropylcellulose) (HPC) 90 % of control

CC(=O)O[C@H]1CC[C@@]2(C)[C@@H](CC[C@@H]3[C@@H]2CC[C@]2(C)C(=NCCO)CC[C@@H]32)C1
inactive: [1] 108 % of control | [2] 105 % of control | [3] 99 % of control

CCCC(NC(=O)OCc1ccccc1)C(=O)NC(CO)C(=O)O (stereo unspecified) (Cbz-[Nva]-Ser-OH; configuration not given here)
inactive: [1] 94 % of control | [2] 108 % of control | [3] 94 % of control

COC(=O)C1CCCN1 (stereo unspecified)
inactive: dose: 60.0 mg/kg/injection, schedule: Q01DX005 (ip), vehicle: saline 105 % of control | dose: 120.0 mg/kg/injection, schedule: Q01DX005 (ip), vehicle: saline 111 % of control | dose: 240.0 mg/kg/injection, schedule: Q01DX005 (ip), vehicle: saline 104 % of control

CCOP(=O)(Nc1ccc2c(c1)Cc1c-2cc(Cl)c(NC(C)=O)c1Cl)OCC
inactive: [1] 95 % of control | [2] 97 % of control | [3] 97 % of control

CC[As](CC)SC(CC[C@@H](C)C1CC[C@@]2(C)C3=C(CC[C@]12C)[C@@]1(C)CC[C@H](O)C(C)(C)[C@@H]1CC3)C(C)C (stereo partly specified)
inactive: [1] 87 % of control | [2] 92 % of control | [3] 95 % of control

OCCNCCNc1ccnc2c1ccc1ccccc12
inactive: [11] 105 % of control

CC1(C)SC=C2C1=CSC2(C)C
inactive: [11] 101 % of control | [12] 96 % of control | [13] 95 % of control

CC(NC(=O)C(Cc1c[nH]c2ccccc12)NC(=O)OC(C)(C)C)C(=O)NN (stereo not drawn) (Boc-Trp-Ala-NHNH2; configuration not given here)
inactive: dose: 12.5 mg/kg/injection, schedule: Q01DX009 (ip), vehicle: other 98 % of control | dose: 25.0 mg/kg/injection, schedule: Q01DX009 (ip), vehicle: other 100 % of control | dose: 50.0 mg/kg/injection, schedule: Q01DX009 (ip), vehicle: other 105 % of control | dose: 100.0 mg/kg/injection, schedule: Q01DX009 (ip), vehicle: other 109 % of control | dose: 200.0 mg/kg/injection, schedule: Q01DX009 (ip), vehicle: other 119 % of control

CS(=O)(=O)C(=S)Sc1ccccc1
inactive: dose: 25.0 mg/kg/injection, schedule: Q01DX001 (ip), vehicle: saline with Tween-80 97 % of control | dose: 50.0 mg/kg/injection, schedule: Q01DX001 (ip), vehicle: saline with Tween-80 97 % of control

c1ccc2cc(OCC(COc3ccc4ccccc4c3)(COc3ccc4ccccc4c3)COc3ccc4ccccc4c3)ccc2c1
inactive: [14] 89 % of control

CCOC(=O)C1=C(c2ccccc2)C2OC1C(COC(=O)NC)=C2COC(=O)NC (stereo unspecified)
inactive: dose: 12.5 mg/kg/injection, schedule: Q01DX009 (ip), vehicle: distilled water + Tween-80 96 % of control | dose: 25.0 mg/kg/injection, schedule: Q01DX009 (ip), vehicle: distilled water + Tween-80 93 % of control | dose: 50.0 mg/kg/injection, schedule: Q01DX009 (ip), vehicle: distilled water + Tween-80 87 % of control | dose: 100.0 mg/kg/injection, schedule: Q01DX009 (ip), vehicle: distilled water + Tween-80 87 % of control | dose: 200.0 mg/kg/injection, schedule: Q01DX009 (ip), vehicle: distilled water + Tween-80 99 % of control

CSc1ccc(N=C(N)N)cc1
inactive: [4] 108 % of control | [5] 110 % of control

O=Cc1ccc2occc2c1O
inactive: dose: 3.75 mg/kg/injection, schedule: Q01DX009 (ip), vehicle: saline with Tween-80 95 % of control | [14] 94 % of control | dose: 15.0 mg/kg/injection, schedule: Q01DX009 (ip), vehicle: saline with Tween-80 92 % of control

CCOCN(COCC)C(C)Cc1ccccc1 (stereo unspecified)
inactive: dose: 3.13 mg/kg/injection, schedule: Q01DX009 (ip), vehicle: saline with Tween-80 104 % of control | dose: 6.25 mg/kg/injection, schedule: Q01DX009 (ip), vehicle: saline with Tween-80 107 % of control | dose: 12.5 mg/kg/injection, schedule: Q01DX009 (ip), vehicle: saline with Tween-80 114 % of control | dose: 25.0 mg/kg/injection, schedule: Q01DX009 (ip), vehicle: saline with Tween-80 123 % of control

Cc1ncc(CO)n1Cc1ccc(Cl)cc1
inactive: dose: 50.0 mg/kg/injection, schedule: Q01DX009 (ip), vehicle: Klucel (hydroxypropylcellulose) (HPC) 104 % of control | dose: 100.0 mg/kg/injection, schedule: Q01DX009 (ip), vehicle: Klucel (hydroxypropylcellulose) (HPC) 99 % of control | dose: 200.0 mg/kg/injection, schedule: Q01DX009 (ip), vehicle: Klucel (hydroxypropylcellulose) (HPC) 94 % of control

COC(=O)C(N)CN (stereo unspecified)
inactive: dose: 43.75 mg/kg/injection, schedule: Q01DX009 (ip), vehicle: saline with Tween-80 97 % of control | dose: 87.5 mg/kg/injection, schedule: Q01DX009 (ip), vehicle: saline with Tween-80 97 % of control | dose: 175.5 mg/kg/injection, schedule: Q01DX009 (ip), vehicle: saline with Tween-80 97 % of control
